Measurements published in ChEMBL document CHEMBL1201862, “PubChem BioAssay data set” (2004).
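Five compound concentrations were applied to cells in 96-well plates for 48 hours; endpoints were derived by simple linear interpolation of the resulting dose-response curve. GI50 is the concentration that inhibits growth by half.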 Calls of active or inactive are those of the source. Rule as the data show it: active = GI50 up to about 1.1 µM and inactive = higher.

Experiments:
Assay in all cases: NCI-60 cell line screen, 48 h
Malme-3M = system: Malme-3M
NCI-H226 = system: NCI-H226
OVCAR-3 = system: OVCAR-3
TK-10 = system: TK-10
SW-620 = system: SW-620
IGROV-1 = system: IGROV-1
HT-29 = system: HT-29
NCI-H522 = system: NCI-H522
SK-OV-3 = system: SK-OV-3
HCT-15 = system: HCT-15
NCI-H460 = system: NCI-H460
SF-539 = system: SF-539
OVCAR-8 = system: OVCAR-8
HCT-116 = system: HCT-116
M14 = system: M14
K562 = system: K562
DMS-114 = system: DMS-114
SNB-19 = system: SNB-19
HOP-18 = system: HOP-18
HOP-92 = system: HOP-92
LXFL 529 = system: LXFL 529
CCRF-CEM = system: CCRF-CEM
UACC-62 = system: UACC-62
786-0 = system: 786-0
SR = system: SR
NCI-H23 = system: NCI-H23
EKVX = system: EKVX
HL-60 = system: HL-60
SK-MEL-28 = system: SK-MEL-28
KM12 = system: KM12
DLD-1 = system: DLD-1
UO-31 = system: UO-31
COLO 205 = system: COLO 205
A498 = system: A498
HOP-62 = system: HOP-62
ACHN = system: ACHN
A549 = system: A549
U-251 = system: U-251
RXF 631 = system: RXF 631
DMS-273 = system: DMS-273
OVCAR-4 = system: OVCAR-4
OVCAR-5 = system: OVCAR-5
LOX IMVI = system: LOX IMVI
HCC 2998 = system: HCC 2998
UACC-257 = system: UACC-257
KM-20L2 = system: KM-20L2
RPMI-8226 = system: RPMI-8226
SNB-78 = system: SNB-78
RXF 393 = system: RXF 393
SNB-75 = system: SNB-75
SF-268 = system: SF-268
SF-295 = system: SF-295
MOLT-4 = system: MOLT-4
M19-MEL = system: M19-MEL
CAKI-1 = system: CAKI-1
SN12C = system: SN12C

For `Cc1c(C(=O)/C=C/c2ccc(Cl)cc2)[n+]([O-])c2ccccc2[n+]1[O-]`, the GI50 (Malme-3M) was 19.6 µM (inactive), the GI50 (NCI-H226) was 16.4 µM (inactive) and the GI50 (OVCAR-3) was 12.5 µM (inactive). For the same molecule, the GI50 (TK-10) was 18.2 µM (inactive), the GI50 (SW-620) was 8.69 µM (inactive) and the GI50 (IGROV-1) was 11.8 µM (inactive). The GI50 (HT-29) was 12.9 µM (inactive), the GI50 (NCI-H522) was 3.78 µM (inactive) and the GI50 (SK-OV-3) was 21.2 µM (inactive). For the same molecule, the GI50 (HCT-15) was 9.23 µM, the GI50 (NCI-H460) was 11.3 µM (inactive) and the GI50 (SF-539) was 12.1 µM (inactive). For the same molecule, the GI50 (OVCAR-8) was 11.2 µM (inactive), the GI50 (HCT-116) was 5.93 µM (inactive) and the GI50 (M14) was 15.6 µM (inactive). The GI50 (K562) was 4.6 µM (inactive), the GI50 (DMS-114) was 4.1 µM (inactive) and the GI50 (SNB-19) was 14.4 µM (inactive). The GI50 (HOP-18) was 20.6 µM (inactive), the GI50 (HOP-92) was 15 µM (inactive) and the GI50 (LXFL 529) was 9.08 µM (inactive). For the same molecule, the GI50 (CCRF-CEM) was 5.57 µM (inactive), the GI50 (UACC-62) was 12.6 µM (inactive) and the GI50 (786-0) was 12.6 µM (inactive). For the same molecule, the GI50 (SR) was 19.3 µM (inactive), the GI50 (NCI-H23) was 10.4 µM (inactive) and the GI50 (EKVX) was 15.6 µM (inactive). The GI50 (HL-60) was 5.92 µM (inactive), the GI50 (SK-MEL-28) was 17 µM (inactive) and the GI50 (KM12) was 10.8 µM (inactive). The GI50 (DLD-1) was 7.94 µM (inactive), the GI50 (UO-31) was 16.1 µM (inactive) and the GI50 (COLO 205) was 14.1 µM (inactive). The GI50 (A498) was 14.2 µM (inactive), the GI50 (HOP-62) was 26.5 µM (inactive) and the GI50 (ACHN) was 14.7 µM (inactive). The GI50 (A549) was 12.4 µM (inactive), the GI50 (U-251) was 12.9 µM (inactive) and the GI50 (RXF 631) was 34.5 µM (inactive). For the same molecule, the GI50 (DMS-273) was 7.64 µM (inactive), the GI50 (OVCAR-4) was 10.5 µM (inactive) and the GI50 (OVCAR-5) was 15 µM (inactive). For the same molecule, the GI50 (LOX IMVI) was 7.28 µM (inactive), the GI50 (HCC 2998) was 11.8 µM (inactive) and the GI50 (UACC-257) was 15.8 µM (inactive). The GI50 (KM-20L2) was 7.11 µM (inactive), the GI50 (RPMI-8226) was 11.1 µM (inactive) and the GI50 (SNB-78) was 22.1 µM (inactive). For the same molecule, the GI50 (RXF 393) was 4.18 µM (inactive), the GI50 (SNB-75) was 15.3 µM (inactive) and the GI50 (SF-268) was 14.7 µM (inactive). For the same molecule, the GI50 (SF-295) was 12.2 µM (inactive), the GI50 (MOLT-4) was 13.8 µM (inactive) and the GI50 (M19-MEL) was 15.2 µM (inactive). The GI50 (CAKI-1) was 9.2 µM (inactive) and the GI50 (SN12C) was 7.1 µM (inactive).
